Columns and labels:
COX-1 = target: T1, COX-1 (Ovis aries, UniProt P05979); assay: Inhibition of COX-1 enzymatic activity (PGE2 produced determined by EIA); assay type: biochemical, ram (purified enzyme from ram seminal vesicles); settings: 10^-4 M; ram seminal vesicle COX-1, arachidonic acid 6 μM
T1 construct: purified enzyme from ram seminal vesicles; from tissue; host or cells: ram seminal vesicles
T1 sequence (P05979 25-600): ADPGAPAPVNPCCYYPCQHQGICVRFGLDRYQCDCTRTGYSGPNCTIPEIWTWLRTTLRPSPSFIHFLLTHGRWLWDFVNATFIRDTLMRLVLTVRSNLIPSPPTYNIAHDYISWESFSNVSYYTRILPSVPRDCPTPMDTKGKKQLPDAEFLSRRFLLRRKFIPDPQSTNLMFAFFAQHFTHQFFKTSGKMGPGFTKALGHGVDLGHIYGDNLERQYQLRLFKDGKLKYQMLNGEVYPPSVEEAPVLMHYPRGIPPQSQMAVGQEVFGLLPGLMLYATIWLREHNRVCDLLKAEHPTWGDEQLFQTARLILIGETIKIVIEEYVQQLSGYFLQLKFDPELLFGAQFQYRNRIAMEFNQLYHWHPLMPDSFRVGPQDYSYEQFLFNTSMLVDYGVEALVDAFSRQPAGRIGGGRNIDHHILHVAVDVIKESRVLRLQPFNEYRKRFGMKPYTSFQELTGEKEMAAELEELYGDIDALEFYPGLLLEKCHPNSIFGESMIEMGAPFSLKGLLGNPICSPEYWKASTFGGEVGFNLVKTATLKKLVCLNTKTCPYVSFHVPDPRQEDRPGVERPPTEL
Method: (§1) The molecule studied is preincubated for 10 minutes at 25° C. with 2 U of COX-1 (purified enzyme from ram seminal vesicles) or 1 U of COX-2 (purified enzyme from ewe placenta). Arachidonic acid (6 μM for COX-1, 4 μM for COX-2) is added to the reaction medium and incubation is carried out for 5 minutes at 25° C. When incubation has ended, the enzymatic reaction is stopped by the addition of 1 N HCl and the PGE2 produced is deter mined by EIA. […] For other examples, the results are expressed in the form of IC50, the concentration in μM corresponding to 50% inhibition of the maximal enzymatic activity upon COX-1 and COX-2 (n=1 to 4 determinations).

COX-2 = target: T2, COX-2 (Ovis aries, UniProt P79208); assay: Inhibition of COX-2 enzymatic activity (PGE2 produced determined by EIA); assay type: biochemical, ewe (purified enzyme from ewe placenta); settings: ewe placenta COX-2, arachidonic acid 4 μM; for inhibition at 10 µM: 10^-5 M; for IC50: n=1 to 4 determinations; for inhibition at 1 µM: at 10^-6 M
T2 construct: purified enzyme from ewe placenta; from tissue; host or cells: ewe placenta
T2 sequence (P79208 17-603): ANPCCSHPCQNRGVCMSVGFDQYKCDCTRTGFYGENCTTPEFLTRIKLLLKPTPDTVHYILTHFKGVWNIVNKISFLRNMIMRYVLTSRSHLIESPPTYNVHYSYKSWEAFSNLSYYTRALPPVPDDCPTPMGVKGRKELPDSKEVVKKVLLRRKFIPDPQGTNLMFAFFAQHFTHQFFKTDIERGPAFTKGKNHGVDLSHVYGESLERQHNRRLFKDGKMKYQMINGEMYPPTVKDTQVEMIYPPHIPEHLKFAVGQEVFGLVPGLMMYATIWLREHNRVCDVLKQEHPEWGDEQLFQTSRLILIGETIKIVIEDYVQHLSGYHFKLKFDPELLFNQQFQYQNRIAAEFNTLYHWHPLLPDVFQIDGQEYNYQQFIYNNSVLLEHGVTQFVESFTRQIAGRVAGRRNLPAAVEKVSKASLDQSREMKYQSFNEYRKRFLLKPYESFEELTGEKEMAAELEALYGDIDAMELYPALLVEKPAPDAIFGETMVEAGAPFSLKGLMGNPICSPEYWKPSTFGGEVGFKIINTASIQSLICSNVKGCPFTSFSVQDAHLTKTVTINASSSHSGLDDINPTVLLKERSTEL
Method: as §1

arthritis with kaolin = assay: Analgesic activity: arthritis with kaolin in rats; assay type: in vivo; settings: rat, oral, thirty minutes after intra-articular kaolin; dose inducing 50% decrease of the maximal quotations of control
Method: The analgesic activity of the compounds of the Examples was evaluated according to the method of arthritis with kaolin.
The analgesic activity is evaluated in rats by the test of arthritis with kaolin. Thirty minutes after intra-articular administration of an aqueous 10% suspension of kaolin, the product is administered orally at a rate of 1 ml 100 g (n=10 animals per dose). The results are expressed in the form of ED50, the dose in mg/kg which induces 50% decrease of the maximal quotations obtained in the control batch, calculated by linear regression.

Row | inhibition at 100 µM (COX-1) | inhibition at 10 µM (COX-2) | IC50 (COX-2) | inhibition at 1 µM (COX-2) | Structure (SMILES) | ED50 (arthritis with kaolin)
1 | 6% | 77% | 2.94 µM | – | CN1CC/C(=C(/c2ccc(Cl)cc2)c2ccc(S(C)(=O)=O)cc2)C1=O [28 Z isomer] | –
2 | – | 56% | – | – | CC(=O)OCCN1CC/C(=C(/c2ccc(Cl)cc2)c2ccc(S(C)(=O)=O)cc2)C1=O [30 Z isomer] | –
3 | 13% | 84% | 2.53 µM | – | CCN1CC/C(=C(/c2ccc(Cl)cc2)c2ccc(S(C)(=O)=O)cc2)C1=O [32 Z isomer] | –
4 | 36% | 92% | – | – | CN1CC/C(=C(\c2ccc(S(C)(=O)=O)cc2)c2ccc(Cl)c(Cl)c2)C1=O [53 Z isomer] | –
5 | – | 44% | – | – | COc1ccc(/C(=C2/CCN(C)C2=O)c2ccc(S(C)(=O)=O)cc2)cc1 [55 E isomer] | –
6 | – | 53% | – | – | Cc1cc(/C(=C2/CCN(C)C2=O)c2ccc(S(C)(=O)=O)cc2)ccc1F [56 Z isomer] | –
7 | – | – | 0.12 µM | – | CS(=O)(=O)c1ccc(/C(=C2\CCSC2=O)c2ccc(Cl)cc2)cc1 [80 Z isomer] | 13.7 mg/kg

Continued, compound first:

Row | Structure (SMILES) | inhibition at 100 µM (COX-1) | inhibition at 10 µM (COX-2) | IC50 (COX-2) | inhibition at 1 µM (COX-2) | ED50 (arthritis with kaolin)
8 | CS(=O)(=O)c1ccc(/C(=C2\CCN(C3CCCCC3)C2=O)c2ccc(Cl)cc2)cc1 [29 Z isomer] | 72% | 86% | – | – | –
9 | CS(=O)(=O)c1ccc(/C(=C2\CCN(Cc3ccccc3)C2=O)c2ccc(Cl)cc2)cc1 [31 Z isomer] | 88% | 88% | – | – | 18.5 mg/kg
10 | CN1CC/C(=C(\c2ccc(S(N)(=O)=O)cc2)c2ccc(Cl)c(Cl)c2)C1=O [33 Z isomer] | – | – | 0.393 µM | 70% | –
11 | CS(=O)(=O)c1ccc(C(=C2CCN(CCc3ccccc3)C2=O)c2ccc(Cl)cc2)cc1 [60 Z isomer] | 32% | – | – | 52% | –
12 | CS(=O)(=O)c1ccc(C(=C2CCN(Cc3ccccc3)C2=O)c2ccc(Cl)c(Cl)c2)cc1 [61 Z isomer] | – | – | 0.229 µM | 80% | –
13 | CS(=O)(=O)c1ccc(C(=C2CCN(Cc3cccc(Cl)c3)C2=O)c2ccc(Cl)cc2)cc1 [62 Z isomer] | 79% | 91% | – | – | –
14 | CS(=O)(=O)c1ccc(C(=C2CCN(Cc3ccccc3Cl)C2=O)c2ccc(Cl)cc2)cc1 [63 Z isomer] | 83% | 88% | – | – | –
15 | Cc1cccc(CN2CCC(=C(c3ccc(Cl)cc3)c3ccc(S(C)(=O)=O)cc3)C2=O)c1 [64 Z isomer] | – | 59% | – | – | –
16 | CS(=O)(=O)c1ccc(C(=C2CCN(Cc3ccc(Br)cc3)C2=O)c2ccc(Cl)cc2)cc1 [65 Z isomer] | – | 83% | – | – | –
17 | CS(=O)(=O)c1ccc(/C(=C2\N=C(c3ccccc3)OC2=O)c2ccc(Cl)cc2)cc1 [77 E isomer] | 90% | 77% | 2.83 µM | – | –
18 | CS(=O)(=O)c1ccc(/C(=C2\SC(=S)NC2=O)c2ccc(Cl)cc2)cc1 [78 E isomer] | 37% | 72% | 1.54 µM | – | –
